Laboratory results: patent US5264429A, “2-spirocyclopropyl cephalosporin sulfone derivatives” (SynPhar Laboratories, Inc., priority 1991, dated 1993)
Where two headings read alike, the source gives them in different places.

What was measured:
aminopeptidase M = molecular target: T1, aminopeptidase M (Sus scrofa, UniProt P15145); experiment: Inhibition of aminopeptidase M (ATM); format: biochemical, porcine
T1 construct: from tissue; host or cells: porcine kidney
T1 sequence (P15145 1-963): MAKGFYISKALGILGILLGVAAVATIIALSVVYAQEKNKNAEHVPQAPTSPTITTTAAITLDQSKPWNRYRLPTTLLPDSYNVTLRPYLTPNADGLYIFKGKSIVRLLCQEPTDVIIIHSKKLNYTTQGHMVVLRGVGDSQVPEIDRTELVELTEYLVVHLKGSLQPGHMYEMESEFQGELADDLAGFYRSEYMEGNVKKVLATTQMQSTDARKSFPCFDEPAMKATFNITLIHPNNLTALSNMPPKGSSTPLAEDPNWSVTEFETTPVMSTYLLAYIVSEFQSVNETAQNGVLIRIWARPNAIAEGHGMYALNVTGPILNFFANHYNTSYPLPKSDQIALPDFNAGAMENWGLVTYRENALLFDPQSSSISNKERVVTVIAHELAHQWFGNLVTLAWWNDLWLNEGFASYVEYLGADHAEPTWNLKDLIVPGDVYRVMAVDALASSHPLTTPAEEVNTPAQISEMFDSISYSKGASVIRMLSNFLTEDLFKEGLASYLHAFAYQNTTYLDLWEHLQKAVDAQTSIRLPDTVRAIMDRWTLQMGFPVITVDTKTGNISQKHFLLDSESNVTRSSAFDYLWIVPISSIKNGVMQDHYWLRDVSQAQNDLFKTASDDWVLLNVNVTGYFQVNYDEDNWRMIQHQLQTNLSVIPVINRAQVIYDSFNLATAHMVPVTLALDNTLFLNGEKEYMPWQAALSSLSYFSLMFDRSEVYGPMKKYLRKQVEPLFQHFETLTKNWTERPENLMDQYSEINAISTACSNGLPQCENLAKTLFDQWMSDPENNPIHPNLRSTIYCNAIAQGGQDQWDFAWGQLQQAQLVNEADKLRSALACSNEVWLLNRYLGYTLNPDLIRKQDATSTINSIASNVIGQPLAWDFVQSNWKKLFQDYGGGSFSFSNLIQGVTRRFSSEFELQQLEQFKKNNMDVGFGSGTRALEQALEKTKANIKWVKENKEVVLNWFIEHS
Experimental: HLE, CTG, PPE and CTD were tested at 30° C. and the others were
TRY, trypsin; THR, thrombin; PTH, plasmin; CTC, cathepsin C; ATM,
aminopeptidase M; CTG, cathespin G; CTD, cathespin D; PPE, porcine
Enzyme: Purified aminopeptidase M from porcine kidney
Reaction Mixture: 50 mM Tricine buffer (pH 7.5), 500 mM NaCl, 10% DMSO, 2.0 mM Substrate.
Except for Cathepsin D, the enzyme activities were determined by monitoring the increase in absorbance at 410 nm caused by the hydrolysis of chromogenic substrates. The activity of Cathepsin D was determined by monitoring the absorbance of 5% trichloroacetic acid-soluble material at 280 nm.
(§1) Inhibition of enzymes by the compounds described were determined after a 10 minute preincubation with enzymes in reaction mixtures minus substrate. Reactions were initiated by the addition of substrates. The concentration used for assays were porcine pancreatic elastase at 240 nM and human Cathepsin G at 50 nM. Cathepsin D was used at the concentration that produced approximately 0.15 O.D. increase per 20 min at 280 nm under the standard conditions. All other proteases were assayed at the concentrations that produced approximately 0.1 O.D. change per minute at 410 nm under the standard conditions.

cathepsin D = molecular target: T2, cathepsin D (Bos taurus, UniProt P80209); experiment: Inhibition of cathepsin D (CTD); format: biochemical, bovine; settings: cathepsin D, pH 3.2, 10 minute preincubation, 30° C.; read-out: IC50 CTD
T2 construct: from tissue; host or cells: bovine spleen
Experimental: as §1, with “Except for Cathepsin D, the enzyme activities were determined by monitoring the increase in absorbance at 410 nm caused by the hydrolysis of chromogenic substrates. The activity of Cathepsin D was determined by monitoring the absorbance of 5% trichloroacetic acid-soluble material at 280 nm. Inhibition” for “Inhibition”, “The concentration used for assays were porcine pancreatic elastase at 240 nM and human Cathepsin G at 50 nM.” left out

[1] = aminopeptidase M, pH 7.5, 10 minute preincubation, 22° C., read-out: IC50 ATM

T2 sequence (P80209 45-390): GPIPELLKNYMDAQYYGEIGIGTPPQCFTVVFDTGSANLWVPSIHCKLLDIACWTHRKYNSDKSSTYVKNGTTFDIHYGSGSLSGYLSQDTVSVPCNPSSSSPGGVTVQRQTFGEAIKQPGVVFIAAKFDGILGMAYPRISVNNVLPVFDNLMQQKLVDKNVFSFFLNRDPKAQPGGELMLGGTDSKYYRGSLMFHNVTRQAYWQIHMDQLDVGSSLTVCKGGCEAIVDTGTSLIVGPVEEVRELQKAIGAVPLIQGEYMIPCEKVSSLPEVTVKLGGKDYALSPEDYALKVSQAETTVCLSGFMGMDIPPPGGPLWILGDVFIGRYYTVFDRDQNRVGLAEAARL

| IC50 (aminopeptidase M) | IC50 (cathepsin D) | IC50 (aminopeptidase M; [1]) | Structure (SMILES) |
| --- | --- | --- | --- |
| > 40 µM | > 46.6 µM | – | CC1=C(C(=O)OC(c2ccccc2)c2ccccc2)N2C(=O)[C@H](Br)[C@H]2S(=O)(=O)C12CC2(C)c1ccccc1 (stereo partly drawn) [Example 13 (2), Benzhydryl 7α-bromo-2-spiro(2'-phenyl-2'-methyl) cyclopropyl-3-methyl-3-cephem-4-carboxylate-1,1-dioxide] |
| > 40 µM | > 9.97 µM | – | CO[C@H]1C(=O)N2C(C(=O)N3CCCC3)=C(C)C3(CC3(c3ccccc3)c3ccccc3)S(=O)(=O)[C@H]12 (stereo partly drawn) [Example 10, 7α-Methoxy-2-spiro (2',2'-diphenyl)cyclopropyl-3-methyl-3-cephem-4-pyrrolidine carboxamide-1,1-dioxide] |
| – | > 9.77 µM | > 9.77 µM | CC1=C(C(=O)N2CCCC2)N2C(=O)[C@H](Br)[C@H]2S(=O)(=O)C12CC2(c1ccccc1)c1ccccc1 (stereo partly drawn) [Example 6, 7α Bromo-2-spiro(2',2'-diphenyl)cyclopropyl-3-methyl-3-cephem-4-pyrrolidine carboxamide-1,1-dioxide] |
| – | > 50 µM | > 40 µM | CC1=C(C(=O)OC(c2ccccc2)c2ccccc2)N2C(=O)[C@H](Br)[C@H]2S(=O)(=O)C12CC2(c1ccccc1)c1ccccc1 (single isomer, unassigned) [Example 2, benzhydryl 7α-bromo-2-spiro(2', 2'-diphenyl) cyclopropyl-3-methyl-3-cephem-4-carboxylate-1,1-dioxide] |
| > 9.98 µM | > 9.98 µM | – | CO[C@H]1C(=O)N2C(C(=O)OCC(Cl)(Cl)Cl)=C(C)C3(CC3(c3ccccc3)c3ccccc3)S(=O)(=O)[C@H]12 (stereo partly drawn) [Example 8, 2,2,2-Trichloroethyl-7α-methoxy-2-spiro(2',2'-diphenyl) cyclopropyl-3-methyl-3-cephem-4-carboxylate-1,1-dioxide] |
| – | > 50 µM | > 40 µM | CC1=C(C(=O)OC(C)(C)C)N2C(=O)[C@H](Br)[C@H]2S(=O)(=O)C12CC2(c1ccccc1)c1ccccc1 (stereo partly drawn) [Example 3, t-Butyl 7α-bromo-2-spiro(2',2'-diphenyl) cyclopropyl-3-methyl-3-cephem 4-carboxylate-1,1-dioxide] |
| > 40 µM | > 50 µM | – | CC1=C(C(=O)OC(c2ccccc2)c2ccccc2)N2C(=O)[C@H](Br)[C@H]2S(=O)(=O)C12CC2(c1ccc(F)cc1)c1ccc(F)cc1 (single isomer, unassigned) [Example 13, Benzhydryl 7α-bromo-2-spiro[2',2'-(4',4'-difluoro)diphenyl] cyclopropyl-3-methyl-3-cephem-4-carboxylate-1,1-dioxide] |
| > 55.3 µM | > 46.2 µM | – | CC1=C(C(=O)OC(c2ccccc2)c2ccccc2)N2C(=O)[C@H](Br)[C@H]2S(=O)(=O)C12CC2(c1ccc(Cl)cc1)c1ccc(Cl)cc1 (single isomer, unassigned) [Example 12, Benzhydryl 7α-bromo-2-spiro [2',2'-(4',4'-dichloro)diphenyl]cyclopropyl-3-methyl-3-cephem-4-carboxylate-1,1-dioxide] |
| – | > 50 µM | > 60 µM | CC1=C(C(=O)OC(c2ccccc2)c2ccccc2)N2C(=O)[C@H](Cl)[C@H]2S(=O)(=O)C12CC2(c1ccccc1)c1ccccc1 (single isomer, unassigned) [Example 1, Benzhydryl 7α-chloro-2-spiro(2',2'-diphenyl) cyclopropyl-3-methyl-3-cephem-4-carboxylate-1,1-dioxide] |
| > 40 µM | > 50 µM | – | CCOC(=O)C1CC12C(C)=C(C(=O)OC(c1ccccc1)c1ccccc1)N1C(=O)[C@H](Br)[C@H]1S2(=O)=O (stereo partly drawn) [Example 13 (1), Benzhydryl 7α-bromo-2-spiro(2'-ethoxycarbonyl)cyclopropyl-3-methyl-3-cephem-4-carboxylate-1,1-dioxide] |
| – | > 10 µM | > 10 µM | CCO[C@H]1C(=O)N2C(C(=O)OCC(Cl)(Cl)Cl)=C(C)C3(CC3(c3ccccc3)c3ccccc3)S(=O)(=O)[C@H]12 (stereo partly drawn) [Example 7, 2,2,2-Trichloroethyl-7α-ethoxy-2-spiro(2',2'-diphenyl)cyclo-propyl-3-methyl-3-cephem-4-carboxylate-1,1-dioxide] |
| > 10 µM | > 8.35 µM | – | CO[C@H]1C(=O)N2C(C(=O)OC(c3ccccc3)c3ccccc3)=C(C)C3(CC3(c3ccccc3)c3ccccc3)S(=O)(=O)[C@H]12 (stereo partly drawn) [Example 9, Benzhydryl 7α-methoxy-2-spiro (2',2'-diphenyl) cyclopropyl-3-methyl-3-cephem-4-carboxylate-1,1-dioxide] |
